In patent US12582652B2, “3-(ethoxydifluoromethyl)-6-(5-fluoro-6-(2,2,2-trifluoroethoxy)pyridin-3-yl)-[1,2,4]triazolo[4,3-a]pyrazine as an ion channel modulator” (Praxis Precision Medicines, Inc., priority 2022, dated 2026):
Entries after “also recorded” stand apart in the source; their conditions may differ.

Key:
human NaV1.6 [1] = target: T1, human NaV1.6 (Homo sapiens, UniProt Q9UQD0); experiment: Peak INa voltage-dependent block (VDB), PatchXpress patch clamp; format: cell-based
T1 construct: stably expressing either human NaV1.6 (NP_055006); expressed in transfected cells
T1 sequence (Q9UQD0 whole entry): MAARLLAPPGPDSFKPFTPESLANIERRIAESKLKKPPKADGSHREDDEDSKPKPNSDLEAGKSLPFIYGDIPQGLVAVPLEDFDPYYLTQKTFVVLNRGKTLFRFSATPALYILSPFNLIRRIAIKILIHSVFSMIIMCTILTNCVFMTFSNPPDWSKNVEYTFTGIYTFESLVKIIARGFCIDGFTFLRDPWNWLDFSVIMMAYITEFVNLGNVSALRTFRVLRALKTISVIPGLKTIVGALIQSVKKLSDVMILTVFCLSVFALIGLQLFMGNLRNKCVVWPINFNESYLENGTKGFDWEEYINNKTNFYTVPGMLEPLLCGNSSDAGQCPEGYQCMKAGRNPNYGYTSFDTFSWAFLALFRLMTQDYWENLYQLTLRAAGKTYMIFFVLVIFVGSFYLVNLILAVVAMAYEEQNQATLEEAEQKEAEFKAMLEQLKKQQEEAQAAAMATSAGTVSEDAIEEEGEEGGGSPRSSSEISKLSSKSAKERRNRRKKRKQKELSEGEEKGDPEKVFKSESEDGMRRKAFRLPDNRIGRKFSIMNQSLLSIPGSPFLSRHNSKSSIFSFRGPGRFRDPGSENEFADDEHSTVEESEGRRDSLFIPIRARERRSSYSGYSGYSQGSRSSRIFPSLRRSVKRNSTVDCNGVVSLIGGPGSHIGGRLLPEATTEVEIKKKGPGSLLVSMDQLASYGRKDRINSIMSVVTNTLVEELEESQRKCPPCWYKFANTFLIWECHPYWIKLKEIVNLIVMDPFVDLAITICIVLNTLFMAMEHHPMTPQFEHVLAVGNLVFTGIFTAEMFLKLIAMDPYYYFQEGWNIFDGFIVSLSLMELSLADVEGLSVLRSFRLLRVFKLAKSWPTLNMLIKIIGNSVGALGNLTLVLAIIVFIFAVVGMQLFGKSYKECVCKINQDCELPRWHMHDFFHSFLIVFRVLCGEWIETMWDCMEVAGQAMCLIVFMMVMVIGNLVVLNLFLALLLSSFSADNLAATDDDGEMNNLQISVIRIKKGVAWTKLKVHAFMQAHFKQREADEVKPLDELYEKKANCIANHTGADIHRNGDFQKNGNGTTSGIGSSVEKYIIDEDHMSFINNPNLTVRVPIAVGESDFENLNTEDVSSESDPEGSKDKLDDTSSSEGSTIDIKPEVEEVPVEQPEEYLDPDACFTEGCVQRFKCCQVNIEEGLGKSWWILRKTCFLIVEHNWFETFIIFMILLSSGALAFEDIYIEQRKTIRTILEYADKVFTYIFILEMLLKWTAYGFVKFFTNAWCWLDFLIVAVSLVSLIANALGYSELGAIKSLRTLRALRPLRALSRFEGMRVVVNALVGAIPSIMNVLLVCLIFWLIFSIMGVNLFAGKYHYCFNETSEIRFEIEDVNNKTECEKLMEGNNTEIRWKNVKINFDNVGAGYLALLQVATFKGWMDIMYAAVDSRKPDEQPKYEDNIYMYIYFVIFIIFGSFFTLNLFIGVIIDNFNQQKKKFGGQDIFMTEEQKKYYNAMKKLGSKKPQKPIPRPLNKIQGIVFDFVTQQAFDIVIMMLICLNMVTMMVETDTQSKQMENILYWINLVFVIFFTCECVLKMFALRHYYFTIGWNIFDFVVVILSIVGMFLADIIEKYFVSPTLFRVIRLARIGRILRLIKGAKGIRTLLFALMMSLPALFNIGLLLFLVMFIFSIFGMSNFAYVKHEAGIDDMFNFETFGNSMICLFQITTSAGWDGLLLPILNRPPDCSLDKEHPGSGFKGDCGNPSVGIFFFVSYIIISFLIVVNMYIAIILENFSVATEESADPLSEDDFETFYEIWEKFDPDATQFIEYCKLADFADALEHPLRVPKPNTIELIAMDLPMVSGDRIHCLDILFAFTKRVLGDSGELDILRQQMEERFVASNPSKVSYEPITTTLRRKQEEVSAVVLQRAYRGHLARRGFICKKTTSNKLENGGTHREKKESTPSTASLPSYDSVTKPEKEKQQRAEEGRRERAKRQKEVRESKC
Description: (§1) HEK-293 cell lines stably expressing either human NaV1.6 (NP_055006), mouse NaV1.6 (NP_035453.2), or rat NaV1.6 (NP_062139) were used. All cells were seeded at 2×10^6 cells per Nunc T75 flask for 2 days in culture. At time of harvest for assays, the cell counts were approximately 6×10^6 cells. Cells were washed (1×) in DPBS (Hyclone, Cat #SH30028.03) for approximately 30 seconds. 1 mL of 1×0.05% Trypsin-EDTA (GIBCO Cat #25300-054) was added and swirled around to cover the bottom of the flask and was allowed to sit on the cells for approximately 4 minutes (±90% of the cells were lifted by light tapping of the flask). 10 mL of warmed media (DMEM high glucose media Hyclone, SH30022.02 supplemented with 10% Fetal Bovine Serum, 2 mM Sodium Pyruvate, 10 mM HEPES and 400 μg/mL G418) was added to inactivate the trypsin. Cells were triturated until a single cell suspension was achieved. A cell count was performed and cells were aliquoted into a 250 ml centrifuge tube at a concentration of 2×10^5/mL in +30 ml of prewarmed media. The 250 mL centrifuge tube was placed on a rocker in an incubator set at 28° C. and gently rocked for approximately 1 hour to allow cells to recover. Cell aliquots of 5 mL (1×10^6 cells) were placed in a 15 mL centrifuge tube and spun at 100×g for 2 minutes. Supernatant was removed leaving a cell pellet. 100 μL of external recording solution was added to the pellet and triturated 20 times to achieve a single cell suspension and then transferred to a 1.5 mL tube for placement in the PatchXpress® (Molecular Devices).
(§2) Compound 1 was provided as powder and prepared as 10 mM DMSO stocks in 1 dram glass vials prior to assay. Immediately prior to assay, Compound 1 was diluted with DMSO to 300×, the designated final assay concentration. Assay dilutions (1× concentration) were prepared by pipetting 3 μL of diluted Compound 1 into 897 μL of extracellular solution in a 1 mL glass shell vial. Vials were capped and vortexed until initiation of the PatchXpress® (Molecular Devices) recording protocol.
(§3) The same intracellular recording solution was used for the persistent and peak INa assays, which contained: 135 mM CsF, 10 mM CsCl, 5 mM NaCl, 10 mM HEPES, 5 mM EGTA at a pH of 7.4 (adjusted with CsOH) and a measured osmolarity of 298 mOsm (adjusted with mannitol). For the persistent INa assay, the external recording solution contained: 135 mM NaCl, 5.4 mM KCl, 5 mM glucose, 2 mM CaCl2), 1 mM MgCl2, 10 mM HEPES, and 200 nM ATX-II (sea anemone toxin, Alomone Labs; Jerusalem, Israel) at a pH of 7.4 (adjusted with NaOH) and a measured osmolarity of 300 mOsm (adjusted with mannitol). For the peak INa assays, the external recording solution contained: 100 mM NaCl, 35 mM NMDG, 5.4 mM KCl, 5 mM glucose, 2 mM CaCl2), 1 mM MgCl2, and 10 mM HEPES at a pH of 7.4 (adjusted with NaOH) and a measured osmolarity of 300 mOsm (adjusted with mannitol).
(§4) All studies were performed using the PatchXpress® (Molecular Devices) automated patch clamp platform (Molecular Devices) using the whole cell configuration. Recordings were performed at room temperature. Data were collected using Patch Commander software (Molecular Devices) and processed using DataXpress 2.0 (Molecular Devices). Cell acceptance criteria were continuously monitored by custom scripts during the recording. Acceptance criteria for all assays were: baseline peak INa>800 pA, Rseal>200 MΩ, and, where appropriate, persistent INa>100 pA. Compensation was 50% and leak subtraction was not used. Currents were filtered at 5 kHz and digitized at 32.5 kHz. Raccess and Rseal were monitored throughout the recording and cells with Raccess>10 MΩ or Rseal<200 MΩ were terminated automatically by script.
Voltage Dependent Block (VDB): VDB protocols used a depolarized voltage to keep channels in half-inactivated (resting) states. This allowed equilibrium binding and accurate determination of isoform selectivity (in the absence of biological features).

[2] = 2-part Phase 1 trial (28 days; OXC combination): pharmacokinetics
Description: This was a 2-part randomized, placebo-controlled Phase 1 trial in healthy participants aged 18-55 years. […] PD effects were examined on quantitative EEG (qEEG; resting and vigilant conditions) and stimulated EEG using auditory steady state response (ASSR). A total of 48 participants were enrolled; Part A, n=30; Part B, n=18.

human NaV1.6 [3] = target: T1, human NaV1.6; experiment: ATX-II activated late (persistent) INa block, PatchXpress patch clamp; format: cell-based
Description: as §1, §2, §3, §4
Late (persistent) current Block: The inhibition of ATX-II activated late current was measured using a 200 ms voltage step to 0 mV. Protocols used low stimulation rates (about 0.1 Hz) and negative potentials (−120 mV) to keep channels in closed (resting) states.

male CD-1 mice [4] = experiment: Spontaneous locomotor activity (sLMA) test
Description: Male CD-1 mice, 6-weeks old, were obtained from Vital River (Beijing, China). The average body weight was 25-35 g at the time the experiments were carried out. The mice were housed in groups of 3-5 under controlled conditions (temperature: 20-26° C.; humidity: 40-70%; air exchange rate: 10-15 cycles/hour; 12:12 light-dark cycle with lights on at 5:00 a.m.). Food and water were available ad libitum. The mice were acclimated to these conditions for 6 days before the start of the studies.
Dosing solutions were prepared on each experiment day. […] All solutions were protected from light. Samples from dosing solutions were stored at 4° C. Both compound and vehicle were dosed at 10 ml/kg.
The sLMA test was carried out over two days. 5 of 10 mice from each treatment group were tested on each day. All animals were marked on the tail with a permanent marker and weighed. Mice were randomly assigned into one of the four treatment groups. Animals were acclimated to the test room at least 30 minutes before the start of the experiment.
Possible side effects, such as overt sedation, were recorded just before the start of the sLMA test.
Each mouse was automatically tracked with overhead cameras using a 1-minute sampling window in an isolated chamber. Spontaneous locomotor activity was then analyzed offline using the Animal Behavior Video Tracking Analysis System (Ji Liang Software Technology Co., Ltd., Shanghai, China).
Locomotor status was defined as >2 mm of movement in every 200 ms (Frame-rate recorded was 20 frames/second. Locomotor status was identified in every 4 frame-to-frame interval. The accumulated shift of tracking spots that exceeded 2 mm in every 4 frame intervals was identified as a locomotor epoch). Traveling distance was calculated automatically from all the locomotion epochs and analyzed.
All mice were anesthetized with CO2. Then, terminal plasma and brain tissue samples were collected from animals in the drug treatment groups. 500 μL whole blood was collected via cardiac puncture and placed in tubes with 10 μL EDTAK2. The tubes were then placed in wet ice until centrifuged at 2000 g for 5 minutes at 4° C. The supernatant plasma was pipetted into Eppendorf tubes.
All statistical analyses were conducted using GraphPad Prism 7.0. Data are presented as mean±s.e.m., and p<0.05 was regarded as statistically significant.
Dose-response and concentration-response curves for plasma and brain were fitted for each end-point using GraphPad Prism. From these fitted curves, TD50 and TC50 values were calculated.

male CD-1 mice [5] = experiment: Maximal electroshock induced seizure (MES) test; format: in vivo, mouse
Description: Food and water were available ad libitum.
VPA was prepared in saline (Vehicle 1). All solutions were protected from light. All compounds and vehicles were dosed at 10 ml/kg.
The MES test was carried out over two days with 6 of 12 mice from each treatment group being tested on each day. Mice were brought to the test room at least one hour before the start of the experiment.
A Grass S88x (Grass Technologies of Astro-Med, Inc., West Warwick, RI) Stimulus Isolation Unit (A385, WPI Inc., USA) was set to deliver a 50 mA square-wave stimulus, with a 0.8 second duration, a pulse width of 10 msec, and a frequency of 50 Hz. A pair of custom stainless steel electrodes were soaked in 0.2% Agar, and then the subject received bilateral transauricular stimulation through ear-clip electrodes. During the stimulation, mice were manually restrained. They were then released into the observation cage for convulsion observation for 60 seconds immediately after stimulation. Each mouse was observed continuously by individuals blinded to treatment conditions and results were recorded.
Anti-seizure assessment endpoints were: (1) latency of hindlimb tonic flexion; (2) latency of hindlimb tonic extension; (3) total #hindlimb tonic flexions; (4) total #hindlimb tonic extensions; (5) latency to death; and (6) mortality rate
From these fitted curves, ED50 and EC50 values were calculated.

SMILES: CCOC(F)(F)c1nnc2cnc(-c3cnc(OCC(F)(F)F)c(F)c3)cn12 [Compound 1, 3-(ethoxydifluoromethyl)-6-(5-fluoro-6-(2,2,2-trifluoroethoxy)pyridin-3-yl)-[1,2,4]triazolo[4,3-a]pyrazine]
- Ratio to Pers. INa (Peak INa VDB / persistent INa) (human NaV1.6 [1]; hNaV1.6): 2.2
- IC50 (human NaV1.6 [1]; hNaV1.6, half-inactivated (V1/2)): 317 nM
- approach to steady state ([2]; 90 mg QD for 28 days, Part A): approached steady state
- increase in Compound 1 concentrations over human-equivalent dose required for efficacy in preclinical MES models ([2]; Part A, 90 mg QD): 13 fold
- Compound 1 exposure with OXC coadministration ([2]; Part B, data not shown): did not appear to be altered
- IC50 (human NaV1.6 [3]; hNaV1.6, ATX-II-evoked, holding −120 mV): 141 nM
- preference for persistent INa relative to peak INa (human NaV1.6 [3]; hNaV1.6, all assay conditions): preference for persistent INa
- effect on locomotor function (male CD-1 mice [4]; 10 mg/kg): no effect on locomotor function
- total traveling distance in 30-minute sLMA test (male CD-1 mice [4]; 20 and 40 mg/kg p.o.): significantly reduced; also recorded: reductions in the distance moved
- sLMA distance moved, dose-response (male CD-1 mice [4]; Compound 1 10-40 mg/kg po): dose-dependent reductions in distance moved
- sLMA TC50 in brain (total) (male CD-1 mice [4]; brain): 1899 ng/g
- sLMA TC50 in brain (free) (male CD-1 mice [4]; brain, free): 69.7 nM
- Tolerability (sLMA) TD50 (male CD-1 mice [4]; dose reducing sLMA by 50%): 44 mg/kg
- Tolerability (sLMA) TC50 (free brain) (male CD-1 mice [4]; free brain concentration): 69.7 nM
- sLMA TC50 in plasma (total) (male CD-1 mice [4]; plasma): 1.553 µg/mL
- PI (Plasma) (male CD-1 mice [4]; plasma TC50 (sLMA) / plasma EC50 (MES), free concentrations): 17.3
- sLMA TC50 in plasma (free) (male CD-1 mice [4]; plasma, free): 308.9 nM
- latency to seizures following bilateral transauricular stimulation (male CD-1 mice [5]; 3 mg/kg p.o., 30 min before test): significantly increased
- mice that did not exhibit tonic seizures (male CD-1 mice [5]; Compound 1 10 mg/kg): 11 of 12
- protection (increase in latency) against MES-induced tonic hindlimb seizures, dose-response (male CD-1 mice [5]; Compound 1 0.3-10 mg/kg po): dose-dependent increases in latency; also recorded: dose-dependent protection
- ED50 (male CD-1 mice [5]; mouse MES, read-out: Efficacy (MES) ED50, increasing latency to tonic extension seizures): 2 mg/kg
